Patent US7652047B2, “Phenylamino isothiazole carboxamidines as MEK inhibitors” (Ardea Biosciences, Inc., priority 2005, dated 2010)

target: T1, MEK1^CA (human GST-MEK1, constitutively active, Ser218Asp and Ser222Asp) (Homo sapiens, UniProt Q02750, S218D/S222D); assay: MEK1 enzymatic activity assay (MEK1^CA / ERK2 / MBP, [γ-33P]ATP incorporation); format: biochemical; conditions: Table 1, compounds of formula I; read-out: Avg IC50
T1 construct: GST; made in house; host or cells: Escherichia coli
T1 sequence (Q02750 whole entry S218D/S222D): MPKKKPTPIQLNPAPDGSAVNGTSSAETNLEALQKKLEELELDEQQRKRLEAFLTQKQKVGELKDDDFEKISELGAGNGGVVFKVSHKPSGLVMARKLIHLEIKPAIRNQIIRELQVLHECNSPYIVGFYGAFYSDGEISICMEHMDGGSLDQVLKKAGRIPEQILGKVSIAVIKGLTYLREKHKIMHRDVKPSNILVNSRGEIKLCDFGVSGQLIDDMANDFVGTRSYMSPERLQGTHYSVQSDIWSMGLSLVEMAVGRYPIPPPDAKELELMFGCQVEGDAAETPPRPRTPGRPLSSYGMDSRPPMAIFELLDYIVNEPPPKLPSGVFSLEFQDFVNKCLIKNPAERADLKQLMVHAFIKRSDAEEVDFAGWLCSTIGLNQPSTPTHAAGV
From the text: Materials and preparation of reagents: Human GST-MEK1 and the constitutively active allele GST-MEK1^CA (harboring the mutations Ser218Asp and Ser222Asp) were subcloned into the […] expression vector pGEM4Z (Promega, Madison, Wis.) from the wild type human MEK1 cDNA. GST-MEK1^CA was expressed in Escherichia coli and partially purified using Glutathione Sepharose 4B affinity resin (Amersham Pharmacia Biotech, Piscataway, N.J.). The ERK2 allele was subcloned from MAPK2/Erk2 cDNA (wild type) in pUSEamp (Upstate Biotechnology, Inc., Waltham, Mass.) into the vector pET21a (Novagen, Madison, Wis.) resulting in an N-terminal histidine-tagged mouse ERK2 allele. […] Myelin basic protein (MBP) was purchased from Gibco BRL (Rockville, Md.). EasyTides adenosine 5′-triphosphate (ATP) ([γ-^33P]) (NEN Perkin Elmer, Wellesley, Mass.) was the source of radiolabel for all kinase reactions. Activated Raf-1 (truncated) and activated MAPKinase 2/ERK2 were purchased from Upstate, Inc. (Lake Placid, N.Y.). 4-20% Criterion Precast gels were purchased from Bio-Rad (Hercules, Calif.).
A typical 25-microliter assay contained 0.002 nanomoles MEK1^CA, 0.02 nanomoles ERK2, 0.25 nanomoles MBP, 0.25 nanomoles unlabeled ATP, and 0.1 μCi [γ^33P] ATP. The screening assay essentially comprised four additions. Five μl of diluted compound were dispensed to 96-well assay plates. Ten μl of 2.5× enzyme cocktail (MEK1^CA and ERK2 only) were then added to each well followed by a pre-incubation for 30 minutes at ambient temperature. […] Finally, 100 μl of 10% trichloroacetic acid (TCA) were added and incubated for 30 minutes at room temperature to halt the reaction and precipitate radiolabeled protein products. Reaction products were harvested on glass fiber 96 well filter plates prewetted with water and 1% pyrophosphate. The filter plate was then washed 5 times with water. Water was displaced by absolute ethanol and the plate was allowed to air dry for 30 minutes at room temperature. A back seal was applied manually and 40 μl of scintillation cocktail were dispensed to each well. A top seal was applied and the plate was counted in the TopCount for two seconds per well.

IC50, 100 to 500 nM:
CCC[C@H]1CC[C@H](c2ccc(Nc3s[nH]c(=O)c3C(N)=NCC(O)CO)cc2)CC1 (stereo partly shown) [compound 63], CN(C)CCNC(=N)c1c(O)nsc1Nc1ccc(Oc2cc(F)cc(F)c2)cc1 [compound 418], N=C(NN1CCOCC1)c1c(O)nsc1Nc1ccc(Oc2cc(F)cc(F)c2)cc1 [compound 436], CC(C)NC(=N)c1c(O)nsc1Nc1ccc(C2CCCCC2)cc1 [compound 170], Cc1cc(Oc2cccc(F)c2F)ccc1Nc1snc(O)c1C(=N)NC(CO)C(C)C (stereo not shown) [compound 503], CC(NC(=N)c1c(O)nsc1Nc1ccc(Oc2ccccc2)cc1)c1ccc(F)cc1 (stereo not shown) [compound 29], CCC(CO)NC(=N)c1c(O)nsc1Nc1ccc(Oc2ccccc2)cc1 (stereo not shown) [compound 153], CC[C@@H](CO)NC(=N)c1c(O)nsc1Nc1ccc(Oc2cccc(C(F)(F)F)c2)cc1C [compound 506], CC(CO)NC(=N)c1c(O)nsc1Nc1cc(Cl)cc(Cl)c1 (stereo not shown) [compound 233], N=C(NCC1CCCCC1)c1c(O)nsc1Nc1cccc(Oc2ccccc2)c1 [compound 83], N=C(NCCc1ccccc1)c1c(O)nsc1Nc1ccc(Oc2ccccc2)cc1 [Cpd 14], CC(C)NC(=N)c1c(O)nsc1Nc1ccc(Oc2ccccc2Cl)cc1 [compound 212], N=C(NCc1ccc(C(F)(F)F)nc1)c1c(O)nsc1Nc1cccc(Oc2ccccc2)c1 [compound 182], CC(C)NC(=N)c1c(O)nsc1Nc1ccc(Oc2cccc(C(F)(F)F)c2)nc1 [compound 430], CC(C)NC(=N)c1c(O)nsc1Nc1ccc(Oc2ccc(F)cc2Cl)cc1 [compound 296], CCOC(=O)c1cccc(Nc2snc(O)c2C(=N)NCC(O)O)c1 [compound 498], Cc1cc(Nc2snc(O)c2C(=N)NC(C)C)ccc1Oc1ccccc1 [compound 317], N=C(NCC(O)CO)c1c(O)nsc1Nc1cccc(Cl)c1 (stereo not shown) [compound 75], N=C(NCCN1CCOCC1)c1c(O)nsc1Nc1ccc(Oc2cc(F)cc(F)c2)cc1 [compound 413], N=C(NCC1CCCCC1)c1c(O)nsc1Nc1ccc(/N=N/c2ccccc2)cc1 [compound 128]

IC50, > 500 nM:
CNC(=N)c1c(O)nsc1Nc1ccc(Oc2ccc(F)cc2)c(Br)c1 [compound 230], N#Cc1cccc(Nc2snc(O)c2C(N)=NCC2CCCCC2)c1 [compound 71], N=C(NCC(O)CO)c1c(O)nsc1Nc1ccc(Oc2ccccc2C(=O)NCC(O)CO)cc1 (stereo not shown) [compound 508], N=C(NCCO)c1c(O)nsc1Nc1ccc(Oc2cncnc2)cc1 [compound 171], COc1ccc(Nc2snc(O)c2C(=N)NCC2CCCCC2)cc1 [compound 60], CCC[C@H]1CC[C@H](c2ccc(Nc3snc(O)c3C(=N)NCCO)cc2)CC1 [compound 161], N=C(NCC1CCCCC1)c1c(O)nsc1Nc1ccc(C(F)(F)F)cc1Cl [compound 98], Cc1cccc(C)c1Oc1ccc(Nc2snc(O)c2C(=N)NC(C)CO)cc1 (stereo not shown) [compound 282], CCOC(=O)c1cccc(Nc2snc(O)c2C(=N)NC(C)C)c1 [compound 488], CC(C)NC(=N)c1c(O)nsc1Nc1ccc(OC2CCNCC2)cc1 [compound 253], N=C(NCC(O)O)c1c(O)nsc1Nc1ccc(Oc2ccc(F)cc2)cc1 [compound 203], Cc1ccc(Oc2ccc(Nc3snc(O)c3C(=N)NCC3CCCCC3)cn2)cn1 [compound 134], N=C(NCC(O)CO)c1c(O)nsc1Nc1cc(C(F)(F)F)cc(C(F)(F)F)c1 (stereo not shown) [compound 67], CC(CO)NC(=N)c1c(O)nsc1Nc1ccc(Oc2ccc(C(F)(F)F)cc2)cc1 (stereo not shown) [compound 377], N=C(NCC1CCCCC1)c1c(O)nsc1Nc1ccccc1 [compound 93], CC(C)NC(=N)c1c(O)nsc1Nc1ccc(Oc2ccc(S(C)(=O)=O)cc2)cc1 [compound 486], CC(C)C(=O)O[C@H]1CC[C@H](c2ccc(Nc3snc(O)c3C(=N)NCC(O)CO)cc2)CC1 (stereo partly shown) [compound 195]

IC50, 1 to 100 nM:
CC(C)NC(=N)c1c(O)nsc1Nc1ccc(Oc2cccc(Cl)c2)cc1 [compound 249], CC(C)NC(=N)c1c(O)nsc1Nc1ccc(Oc2cccc(Cl)c2F)cc1 [compound 366], CC(C)NC(=N)c1c(O)nsc1Nc1ccc(Oc2cccc(C(F)(F)F)c2Cl)c(F)c1 [compound 373], Cc1cccc(Oc2ccc(Nc3snc(O)c3C(=N)NC(C)CO)cc2)c1C (stereo not shown) [compound 346], N=C(N[C@H]1CC[C@H](O)CC1)c1c(O)nsc1Nc1ccc(Oc2ccccc2)cc1 [compound 152], Cc1cccc(C)c1Oc1ccc(Nc2snc(O)c2C(=N)NC(C)C)cc1F [compound 279], CC(C)NC(=N)c1c(O)nsc1Nc1ccc(Oc2ccc(Br)c3ccccc23)cc1 [compound 339], Cc1ccc(Cl)cc1Oc1ccc(Nc2snc(O)c2C(=N)NC(C)CO)cc1 (stereo not shown) [compound 304], Cc1ccccc1Oc1ccc(Nc2snc(O)c2C(=N)NC(C)CO)cc1 (stereo not shown) [compound 300], COC(=O)c1ccccc1Oc1ccc(Nc2snc(O)c2C(=N)NC(C)CO)cc1 (stereo not shown) [compound 493], N=C(NCC1CCCCC1)c1c(O)nsc1Nc1ccc(Oc2ccc(Cl)cc2)cc1 [compound 140], N=C(NCC(O)CO)c1c(O)nsc1Nc1cc(F)c(Oc2cc(Cl)ccc2Cl)cc1F (stereo not shown) [compound 477], CCC(C)CNC(=N)c1c(O)nsc1Nc1ccc(Oc2ccccc2)cc1 (stereo not shown) [compound 52], CC(C)NC(=N)c1c(O)nsc1Nc1ccc(Oc2cccc(Cl)c2Cl)cc1 [compound 341], Cc1cccc(Oc2ccc(Nc3snc(O)c3C(=N)NC(C)C)cc2)c1 [compound 291], CC(C)(C)CCNC(=N)c1c(O)nsc1Nc1ccc(Oc2ccccc2)cc1 [compound 42], CC(O)CNC(=N)c1c(O)nsc1Nc1cc(F)c(Oc2cc(Cl)ccc2Cl)cc1F (stereo not shown) [compound 478], CC(C)NC(=N)c1c(O)nsc1Nc1ccc(Oc2ccccc2Br)c(Cl)c1 [compound 290], Cc1cc(Oc2ccc(F)cc2Cl)ccc1Nc1snc(O)c1C(=N)NC(C)C [compound 401], CC(C)NC(=N)c1c(O)nsc1Nc1ccc(Oc2cc(F)ccc2Cl)c(Cl)c1 [compound 382], N=C(NCC(O)CO)c1c(O)nsc1Nc1ccc(Oc2ccccc2)cc1 (stereo not shown) [compound 40], CC(C)NC(=N)c1c(O)nsc1Nc1ccc(Oc2cccc(Cl)c2Cl)c(Cl)c1 [compound 383], CC[C@H](CO)NC(=N)c1c(O)nsc1Nc1ccc(Oc2cccc(C(F)(F)F)c2)cc1C [compound 474], CC(CO)NC(=N)c1c(O)nsc1Nc1ccc(Oc2cccc(Cl)c2)cc1 (stereo not shown) [compound 252], N=C(NO)c1c(O)nsc1Nc1ccc(Oc2cc(Cl)ccc2Cl)cc1 [compound 450], CCOC(=O)c1cccc(Oc2ccc(Nc3snc(O)c3C(=N)NC(C)C)cc2)c1 [compound 410], COCC(C)NC(=N)c1c(O)nsc1Nc1ccc(Oc2ccccc2)cc1 (stereo not shown) [compound 178], CC(C)NC(=N)c1c(O)nsc1Nc1ccc(Oc2ccccc2)c(Cl)c1 [compound 286], CCNC(=N)c1c(O)nsc1Nc1ccc(Oc2ccccc2)cc1 [compound 199], N=C(NCc1ccc(C(F)(F)F)cc1)c1c(O)nsc1Nc1ccc(Oc2ccccc2)cc1 [Cpd 21], N=C(NCCC1=CCCCC1)c1c(O)nsc1Nc1ccc(Oc2ccccc2)cc1 [Cpd 13], CC(C)NC(=N)c1c(O)nsc1Nc1ccc(Oc2cccc(Br)c2)cc1 [compound 250], CC(CO)NC(=N)c1c(O)nsc1Nc1cc(F)c(Oc2cc(Cl)ccc2Cl)cc1F (stereo not shown) [compound 476], Cc1cc(Oc2ccc(F)c(F)c2)ccc1Nc1snc(O)c1C(=N)NC(C)C [compound 459], CC(CO)NC(=N)c1c(O)nsc1Nc1ccc(Oc2ccccc2Br)c(Cl)c1 (stereo not shown) [compound 280]

same assay, conditions: Table 2, Ar1-A contains an amido or indolo group; read-out: IC 50

IC50, > 1000 nM:
N=C(NCCO)c1c(O)nsc1Nc1ccc(C(=O)N2CCc3ccccc32)cc1 [E-13]
